Literature values as cited in US20240274231A1, “Method, System and Computer Program Product for Determining Peptide Immunogenicity” (MyNeo NV, priority 2020, published 2024).
Where two headings read alike, the source gives them in different places.

Tested on: CD8+ T cell responses
Details: stimulated IFN gamma ELISpot, peptide specific CD8+ T-cell responses among eleven evaluable breast cancer patients, vaccine plus poly-ICLC

SLFRAVITK [MAGGE-A196-104, HLA-A3 MAGE-A196-104 vaccine peptide]
ELISpot: 1 borderline | ELISpot (listed as MAGE-A196-104): borderline response
